# pIC50: −log10 of the molar value.
# Tests used:
# OVCAR8 YBX1-shRNA1 cells = test: Cell viability assay, transduced OVCAR8 cells; settings: Homo sapiens, OVCAR-8, read-out: IC50 (cell viability)
# Text: To check the dependency of SU056 activity on YB-1 expression, we also tested OVCAR8 cells transfected with YB-1 knockdown using transduction of lentiviral shRNA vectors. […] Furthermore, we also performed a cell viability assay using knockdown cells to calculate IC50 values.
# Scrambled control (SC), YBX1 knockdown (1 & 2) and mCherry-YBX1 OVCAR8 cell lines were created using lentiviral based transduction and selected using puromycin resistance followed by cell shorting.
# Cell viability assay: Cell viability was assessed using the standard MTT assay protocol. In brief, 5,000 cells were plated in each well of 96 well plates (Corning-Costar, #3598) and allowed to attach for 24 h. Cells were treated with a respective concentration of compounds for respective time points. A stock solution of each compound was prepared in DMSO. DMSO concentration was kept constant and maintained below 0.1%. After each incubation, 50 μL of 0.5 mg/ml MTT solution prepared in 1×PBS was added to each well followed by 1 h incubation at 37° C. and 5% CO2. MTT solution and media were then removed, and MTT formazan crystals were dissolved in 100 μL of DMSO per well. Absorbance at 570 nm for each well was recorded using a multimode plate reader to quantitate MTT crystallization. Each absorbance value was normalized to controls and converted into percent cell viability. […]
# [1] = system: MDA-MB-231, MDA-MB-468 and SUM 159 cells; test: Cell cycle distribution in TNBC cells (flow cytometry); assay type: cell-based; settings: 12 and 24 hr
# Method: FIG. 11A). The growth inhibitory effect of SU056 was evaluated using MTT assay. TNBC cell lines (MDA-MB-231, MDA-MB-468, SUM159, 4T1, E0771 and EMT6) were plated in 96 well plate. Next day, treated with vehicle (DMSO) alone or 0.005-50 μM of SU056 in fresh medium. After 48 hr of treatments, cell viability was measured using MTT assay. FIG. 11B). A total of 300-600 cells were plated per well of a 12-well plate and allowed to attach for 24 hr. […] Representative colony formations from respective wells of cell. FIG. 11C) Number of colonies formed after SU056 treatment. FIG. 11D) Effect of SU056 on cell cycle distribution in TNBC cells. MDA-MB-231, MDA-MB-468 and SUM 159 cells were treated with vehicle or SU056 for 12 and 24 hr. At the end of treatment, cells were collected and analysed using flow cytometry. […] SU056 induces level of phosphor-Histone H3 in cells at 12 and 24 hr.
smiles,measurement,setting,value
"O=C1OCC2=C1C(c1cccc(F)c1)c1cc3c(cc1N2CCO)OCO3 (centres unmarked) [SU056, 9-(3-fluorophenyl)-5-(2-hydroxyethyl)-6,9-dihydro-[1,3]dioxolo[4,5-g]furo[3,4-b]quinolin-8(5H)-one]",pIC50,OVCAR8 YBX1-shRNA1 cells,4.80
same,cell cycle distribution in TNBC cells,[1],G2/M phase arrest

# From US20240016784A1, “Y BOX BINDING PROTEIN 1 INHIBITORS” (Oregon Health & Science University, priority 2020, published 2024)
